Experimental data reported in US6319952A, “Compositions and methods for reversibly increasing permeability of biomembranes” (D-Pharm Ltd., priority 1997, dated 2001).

Experiments:
mice = settings: mouse, in vivo
[1] = test system: bovine brain capillary endothelial cells in co-culture with astrocytes; experiment: Reversibility kinetic of DP-BFA effect on the paracellular permeability of the BBB in vitro; type: cell-based
Experimental: Endothelial cells are cocultured 12 days, and on the twelfth day DP-BFA was added to the cultures for one hour. The cultures were then washed to remove the test material and cultured for a further period of 3, 6 or 18 hours without DP-BFA.
(§1) Permeability studies were carried out on the monolayer of endothelial cells, using two paracellular tracers: inulin-^3 H and sucrose-^14C.

[2] = test system: bovine brain capillary endothelial cells in co-culture with astrocytes; experiment: Paracellular permeability (inulin and sucrose clearance), in vitro coculture model of the BBB; type: cell-based
Excerpt: The alterations in barrier function on bovine brain capillary endothelial cells in co-culture were investigated. To provide an "in vitro" system for studying brain capillary functions, a process of coculture was used that closely mimics the "in vivo" situation by culturing brain capillary endothelial cells on one side of a filter and astrocytes on the other (Dehouck, et al. (1992) J. Neurochemistry 58:1790-1797). Endothelial cells form a confluent monolayer in 12 days.
Endothelial cells are cultured in the upper compartment on the filter and astrocytes in the lower compartment on the plastic of the Petri dish.
Under these conditions, endothelial cells retain all the endothelial markers (factor VIII--related antigen, nonthrombogenic surface, production of prostacyclin, angiotensin converting enzyme activity) and the characteristics of the blood-brain barrier (presence of tight junctions, paucity of pinocytotic vesicles, monoamine oxidase activity, γ-glutamyltranspeptidase activity).
Two different time points were tested, namely 1 hr and 24 hrs of incubation with DP-BFA, and five different concentrations per time point: 0.04; 0.08; 0.16; 0.24; 0.32 mg/ml corresponding to 0.125; 0.25; 0.5; 0.75; 1×10^-3 M.
DP-BFA is stored in a hermetically sealed dark vial filled with Argon at 5° C. for up to 3 months. The drug quantity was taken out the vial cap with a Teflon spatula. The compound was dissolved in sodium carbonate-sodium bicarbonate buffered saline solution adjusted to pH 8.8-9 at 37° C. A stock solution (12.8 mg/ml) was prepared and kept at 37° C. for 15 minutes. The solution was protected from light by covering it with aluminium foil. […] The desired concentration of DP-BFA was obtained by diluting the stock solution with the buffer. The solutions were filtered through a […] filter. The DP-BFA solutions were kept at 37° C. in vials protected from light, for no more than 6 hours.
Stock solution of DP-BFA was added directly to the coculture medium (upper compartment) in order to obtain a dilution of 1:40.
as §1
To obtain a concentration-dependent transport parameter, the clearance principle was used. For each time, the increment in cleared volume between successive sampling events was calculated by dividing the amount of transported solute by the donor chamber concentration. The total volume cleared at each point was calculated by summing the incremental cleared volumes up to the given time point: [formula]
where [C]L is the initial luminal tracer concentration, [C]A the abluminal tracer concentration, and VA the volume of the abluminal chamber. During the 45-mim experiment, the clearance volume increased linearly with time. The average volume cleared was plotted versus time, and the slope was estimated by linear regression analysis to give the mean and the SE to the estimate. The slope of the clearance curves for the coculture was denoted PSt, where PS is the permeability x surface area product (in microliters per minute). The slope of the clearance curve for the control filter was denoted PSf.
The PS value for the endothelial monolayer (PSe) was calculated from [formula]
The PSe values were divided by the surface area of the Millicell-PC (4.2 cm^2) to generate the endothelial permeability coefficient (Pe, in centimeters per minute).
In that case, the results are presented as clearance (μl) in function of time (min) and clearance at 45 minutes for each condition.

[3] = test system: blood-brain barrier (BBB); experiment: Reversibility of effect of M 3/14 on BBB permeability (Evan's Blue absorbance of brain extract); type: in vivo, rat (male Sprague-Dawley); settings: for Quantity EB: 620 nm, per gram wet weight
Experimental: The experiments were carried out on male Sprague-Dawley rats weighing 250-320 gr. They were anesthetized with Rampun-Imalgen. The right common carotid artery was exposed.
The test compounds were dissolved in 0.1M phosphate buffered physiological saline (pH=7.4) at the following test concentrations: 1.6; 8; 20; 40; 200 and 1000 μg/ml. […] The resulting pH of the test solutions was in the range of 8.0 to 8.5, and contols for the pH effect were performed up to pH 9.
The test compound was infused into the right common carotid artery at a rate of 6 ml/min. for 30 s. The control rats were infused with buffer. Evan's Blue (EB) solution at a concentration of […] (2 g Evan's Blue, 0.9 g NaCl in 100 ml water) was injected intravenously 50 minutes prior to the termination of the experiment.
At the end of the experimental time period the animals were perfused with 100 ml of saline solution through the heart and decapitated. The degree of BBB opening, in terms of extravasation of Evan's Blue albumin, was graded on the basis of visual assessment of the degree of staining of the brain ato the method of Rapoport et al. (Rapoport et al., 1980, Amer. J. Physiol. 258, 421-431), and the results are presented in Tables 1 and 2.
A second set of experiments was designed to determine whether the BBB disruption is reversible or irreversible after M 3/14 injection. The extravasation of Evan's Blue-albumin was evaluated at different time points between 3 h and 72 h after M 3/14 injection in concentrations of 8 and 20 μg/ml.
The experiment was conducted on an average of three individual animals per dose per time point. The brains were removed and extracted in dimethylformamide for […]. at room temp. The extract was centrifuged and the supernatant collected and measured for absorbance at 620 nm. The results are presented per gram wet weight of the tissue.

[4] = 0.16 mg/ml 1 hr, then 3 hrs fresh medium
[5] = 0.16 mg/ml 1 hr, then 6 hrs fresh medium
[6] = 0.16 mg/ml 1 hr, then 18 hrs fresh medium
[7] = 0.08 mg/ml, 24 hours incubation

CCCCCCCCCCCCCCC(CCC)C(=O)O (stereo not drawn) [M 3/14, 2-propylhexadecanoic acid]
brain edema or general edema (mice): no brain edema or general edema was observed
decrease in paracellular permeability for inulin (clearance at 45 minutes) [1, 4]: 58%
decrease in paracellular permeability for sucrose (clearance at 45 minutes) [1, 4]: 56%
decrease in paracellular permeability for inulin (clearance at 45 minutes) [1, 5]: 58%
decrease in paracellular permeability for sucrose (clearance at 45 minutes) [1, 5]: 57%
decrease in paracellular permeability for inulin (clearance at 45 minutes) [1, 6]: 76%
decrease in paracellular permeability for sucrose (clearance at 45 minutes) [1, 6]: 72%
reversibility of DP-BFA effect ([1]; 0.16 mg/ml 1 hr, after 3, 6 and 18 hrs): incomplete reversibility
paracellular transport after removal ([1]; after 3 hours, preliminary kinetic study): a decrease in the paracellular transport could be observed
increase in permeability of the monolayer for inulin (clearance at 45 minutes) [2, 7]: 179%
increase in permeability of the monolayer for sucrose (clearance at 45 minutes) [2, 7]: 199%
paracellular breakdown (opening of the tight junctions) ([2]; 0.08 mg/ml, 24 hrs): paracellular breakdown (opening of the tight junctions)
increase in permeability of the monolayer for inulin (clearance at 45 minutes) ([2]; 0.16 mg/ml, 1 hour incubation): 636%
increase in permeability of the monolayer for sucrose (clearance at 45 minutes) ([2]; 0.16 mg/ml, 1 hour incubation): 679%
paracellular breakdown (opening of the tight junctions) ([2]; 0.16 mg/ml, 1 hr): paracellular breakdown (opening of the tight junctions)
Quantity EB ([3]; 8 μg/ml, 3 h): 0.087 absorbance units
Quantity EB ([3]; 8 μg/ml, 24 h): 0.074 absorbance units
Quantity EB ([3]; 20 μg/ml, 3 h): 0.129 absorbance units
Quantity EB ([3]; 20 μg/ml, 24 h): 0.129 absorbance units
Quantity EB ([3]; 20 μg/ml, 72 h): 0.015 absorbance units
duration of effect on BBB permeability ([3]; depending on the dose used (8 and 20 μg/ml)): exceed 24 hours
